Measured values reported in patent US20100119595A1, “Monounsaturated fatty acids and perhydrocyclopentanophenanthrene nucleus combination molecules, and their precursors, and the use of all of these as weight-loss agents” (priority 2001, published 2010).
Marks after values point to notes of the source that are not given here.

Key:
[1] = Human study of 2 hydroxyestrone oleate (Example 11); type: in vivo; conditions: humans, oral capsule, 0.75 or 0.375 micromoles/kg
Experimental: In this random, double-blind, placebo controlled study, subjects are selected to one of three groups and take a capsule orally every morning containing one of the following: a) sunflower oil (placebo), b) 2 hydroxyestrone oleate dissolved in sunflower oil at a dose of 0.75 micromoles/kg, or c) 2 hydroxyestrone oleate dissolved in sunflower oil at a dose of 0.375 micromoles/kg. […]
Different tests are performed at least five different times during each study, namely at the screening of potential participants, at the beginning of the study, weekly during the trials, at the end of the first 4 week period and at the end of the second 4 week treatment period. • 1) SCREENING: Subjects are screened to exclude hypothyroidism, pregnancy, and heart disease. […] Subjects selected to participate in the studies have the following initial measurements: WEIGHT, WAIST to HIP RATIO, HEIGHT, BMI (calculated), BODY FAT % & TOTAL BODY FAT (via bioelectrical impedance method). […]
Ad libitum diets are followed, and food intake and appetite are assessed daily by the patient with an appropriate questionnaire and booklet. […]

[2] = Rabbit 10-day oral study: body weight and food consumed (Example 1); conditions: for FINAL WT.: one rabbit; for WT. Δ w/ Rx 10 days: control +0.14
Experimental: During the first 3 weeks, rabbits were only weighed and allowed to eat. On the fourth week, all rabbits were given 0.05 cc dose of peanut oil.
Five New Zealand white rabbits were obtained and caged in their natural environment (outside) and fed a cafeteria, ad libitum diet of rabbit chow. […] The appropriate weights of OE or EE were diluted in peanut oil to provide concentrations as follows: 1) OE, 2 mg/0.05 cc; 2) EE, 1 mg/0.05 cc; 3) 0.33 mg/0.05 cc; 4) EE, 0.1mg/0.05 cc, 5) EE, 0.03 mg/0.05 cc
For the initial three weeks, the rabbits were given no medicine or oil. Body weight and food consumed were measured daily; establishing a daily average for food consumed and weight change.
Rabbits received the assigned dose for 10 consecutive days. Rabbit weight (kg) and food eaten (grams) were determined daily.

[3] = system: MCF-7 human breast cancer cell line; test: MCF-7 human breast cancer cell line test; type: cell-based; conditions: MCF-7 human breast cancer cells
Text: The practical use of any compound given to humans for the treatment of obesity require, of course, that the compound not only be effective, but able to pass the FDA requirements and be approved as a drug suitable for humans. […] One test used to determine reactivity with human breast cancer cells is the “MCF-7 human breast cancer cell line test”. The lower the concentration of drug required to produce agonist activity, the more potential there is for problems with cancer causing &/or promotion in humans A comfortable level in the pharmaceutical industry would be a reactivity in the micromolar range. In the case of oleyl estrone, agonist activity begins at […]; with estrone eicosenoate, agonist activity begins at a ten times greater concentration of 1.0 nanomolar. This low concentration of agonist activity mitigates the possibility that these compounds would gain FDA approval for either drug.

[4] = EE 1 mg/d vs OE 2 mg/d, oral, rabbits

Compound	appetite [1]	weight loss, loss of body fat, and/or decrease of body fat% [1]	FINAL WT. ([2]; EE 0.03 mg/d oral in peanut oil, 10 days, initial wt 4.00 kg)	WT. Δ w/ Rx 10 days ([2]; EE 0.03 mg/d oral, 10 days, pre-Rx 10 day avg. +0.125)	FOOD/DAY AVG. w/ Rx ([2]; EE 0.03 mg/d oral, 10 days, pre-Rx avg 163.6) [grams]	FINAL WT. ([2]; EE 0.2 mg/d oral in peanut oil, 10 days, initial wt 3.50 kg) [kg]	FOOD/DAY AVG. w/ Rx ([2]; EE 0.2 mg/d oral, 10 days, pre-Rx avg 151.1) [grams]	FINAL WT. ([2]; EE 0.33 mg/d oral in peanut oil, 10 days, initial wt 4.09 kg) [kg]	WT. Δ w/ Rx 10 days ([2]; EE 0.33 mg/d oral, 10 days, pre-Rx 10 day avg. +0.139) [kg]	FOOD/DAY AVG. w/ Rx ([2]; EE 0.33 mg/d oral, 10 days, pre-Rx avg 151.6) [grams]	FINAL WT. ([2]; EE 1 mg/d oral in peanut oil, 10 days, initial wt 3.73 kg) [kg]	WT. Δ w/ Rx 10 days ([2]; EE 1 mg/d oral, 10 days, pre-Rx 10 day avg. +0.129) [kg]	FOOD/DAY AVG. w/ Rx ([2]; EE 1 mg/d oral, 10 days, pre-Rx avg 138.3) [grams]	amount of food eaten relative to the OE rabbit [2, 4]	weight loss relative to OE over a 10-day period [2, 4]	weight gained compared with the Control rabbit ([2]; EE at 1/10 the dose of OE (0.2 mg/d), 10 days)	weight gained compared with the control ([2]; EE at lowest dose (0.03 mg/d), 10 days)	weight loss less than that resulting from OE ([2]; EE at ⅙ the dose of OE (0.33 mg/d vs 2 mg/d), 10 days) [%]	concentration at which agonist activity begins [3] [nM]
CCCCCCCC/C=C\CCCCCCCC(=O)Oc1cc2c(cc1O)[C@H]1CC[C@]3(C)C(=O)CC[C@H]3[C@@H]1CC2 [2HOE, 2 hydroxyestrone oleate]	reduces appetite	produces weight loss	–	–	–	–	–	–	–	–	–	–	–	–	–	–	–	–	–
CCCCCCCC/C=C\CCCCCCCCCC(=O)Oc1ccc2c(c1)CC[C@@H]1[C@@H]2CC[C@]2(C)C(=O)CC[C@@H]12 [EE, estrone eicosenoate]	–	–	4.17* kg	+0.17 kg	158.5	3.56	131.0	4.01	−0.08	150.4	3.37	−0.36	31.9	approximately ⅓	more than three times the weight loss	less than half the weight gained by the Control rabbit	gained more weight than even the control	20	1.0
